Data taken from patent publication US8741614B2, “Crystal structure of isoglutaminyl cyclase” (Probiodrug AG, priority 2010, dated 2014).

Assays:
[1] = target: human QC (Homo sapiens, UniProt Q16769); assay: inhibition of human QC in vitro; format: biochemical
[2] = target: mouse QC (Mus musculus, UniProt Q9CYK2); assay: inhibition of mouse QC in vitro; format: biochemical
[3] = solubility in water; format: physicochemical

Chain of mouse QC (Q9CYK2 36-362): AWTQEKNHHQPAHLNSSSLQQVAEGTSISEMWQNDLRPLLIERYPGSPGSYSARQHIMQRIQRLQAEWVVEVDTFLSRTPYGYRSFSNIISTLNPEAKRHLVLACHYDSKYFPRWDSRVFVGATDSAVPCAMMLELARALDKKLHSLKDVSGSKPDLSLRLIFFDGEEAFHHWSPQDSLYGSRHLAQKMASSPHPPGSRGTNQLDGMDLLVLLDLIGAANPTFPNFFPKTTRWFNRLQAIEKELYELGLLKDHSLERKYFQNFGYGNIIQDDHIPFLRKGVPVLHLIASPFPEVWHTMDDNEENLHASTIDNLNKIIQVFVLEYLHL
Chain of human QC (Q16769 29-361): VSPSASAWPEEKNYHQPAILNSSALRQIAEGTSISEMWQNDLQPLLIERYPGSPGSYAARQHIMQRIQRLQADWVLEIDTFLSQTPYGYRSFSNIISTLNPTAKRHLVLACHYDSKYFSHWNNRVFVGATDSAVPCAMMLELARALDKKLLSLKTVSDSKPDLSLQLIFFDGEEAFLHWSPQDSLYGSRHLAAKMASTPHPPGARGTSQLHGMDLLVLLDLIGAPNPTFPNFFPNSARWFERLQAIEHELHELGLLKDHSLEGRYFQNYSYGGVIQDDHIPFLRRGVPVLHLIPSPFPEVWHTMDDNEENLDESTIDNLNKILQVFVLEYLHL

In the case of `COc1ccc(NC(=S)NCCCn2ccnc2)cc1OC` [Inhibitor A, 1-(3-(1H-Imidazol-1-yl)propyl)-3-(3,4-dimethoxyphenyl)thiourea], the “inhibition of human QC” value [1] was “inhibits”, the “inhibition of mouse QC” value [2] was “inhibits” and the solubility in water [3] was “soluble in water”.
